# Results taken from patent US20050070510A1, “Substituted tetracycline compounds as synergistic antifungal agents” (Paratek Pharmaceuticals, Inc., priority 2001, published 2005).
# Tested on: COS-1 cells
# Test: In vitro mammalian cytotoxicity assay (Resazurin)
row,SMILES,In Vitro Cytotoxicity
1,CN(C)c1cc(NC(=O)Nc2cccc3ccccc23)c(O)c2c1C[C@@]1(N)C[C@@]3(N)[C@H](N(C)C)C(O)=C(C(N)=O)C(=O)[C@@]3(C#N)C(O)=C1C2=O [IA],* (toxicities greater than >25 μg/ml are represented by *)
2,CN(C)[C@@H]1C(O)=C(C(N)=O)C(=O)[C@@]2(C#N)C(O)=C3C(=O)c4c(O)ccc(-c5ccc(F)c(F)c5)c4C[C@@]3(N)C[C@@]12N [QB],** (toxicities less than 25 μg/mL are represented by **)
3,CC(=O)c1cc(C(C)=O)c2c(c1O)C(=O)C1=C(O)[C@]3(C#N)C(=O)C(C(N)=O)=C(O)[C@@H](N(C)C)[C@]3(N)C[C@]1(N)C2 [LL],* (toxicities greater than >25 μg/ml are represented by *)
4,CN(C)CC#Cc1cc(C(C)(C)C)c(O)c2c1C[C@@]1(N)C[C@@]3(N)[C@H](N(C)C)C(O)=C(C(N)=O)C(=O)[C@@]3(C#N)C(O)=C1C2=O [OH],** (toxicities less than 25 μg/mL are represented by **)
5,CCCCCN(CCCCC)Cc1cc(N(C)C)c2c(c1O)C(=O)C1=C(O)[C@]3(C#N)C(=O)C(C(N)=O)=C(O)[C@@H](N(C)C)[C@]3(N)C[C@]1(N)C2 [MP],** (toxicities less than 25 μg/mL are represented by **)
6,"CC#Cc1ccc(O)c2c1CC1CC3[C@H](N(C)C)C(O)=C(C(N)=O)C(=O)[C@@]3(O)C(O)=C1C2=O (stereo partly drawn) [Compound HC, 7-(Propynyl)-Sancycline]",** (toxicities less than 25 μg/mL are represented by **)
7,CN(C)[C@@H]1C(O)=C(C(N)=O)C(=O)[C@@]2(C#N)C(O)=C3C(=O)c4c(O)ccc(C#CC5(C#N)CCCCC5)c4C[C@@]3(N)C[C@@]12N [GA],** (toxicities less than 25 μg/mL are represented by **)
8,CN(C)[C@@H]1C(O)=C(C(N)=O)C(=O)[C@@]2(C#N)C(O)=C3C(=O)c4c(ccc(NC5CCC(Cc6ccccc6)CC5)c4O)[C@H](N)[C@@]3(N)[C@H](O)[C@@]12N (stereo partly drawn) [RS],* (toxicities greater than >25 μg/ml are represented by *)
9,CN(C)[C@@H]1C(O)=C(C(N)=O)C(=O)[C@@]2(C#N)C(O)=C3C(=O)c4c(ccc(NC5CCN(Cc6ccccc6)CC5)c4O)C[C@@]3(N)C[C@@]12N [SJ],* (toxicities greater than >25 μg/ml are represented by *)
10,CN(C)[C@@H]1C(O)=C(C(N)=O)C(=O)[C@@]2(C#N)C(O)=C3C(=O)c4c(O)ccc(-c5ccc(CNC(C)(C)C)o5)c4C[C@@]3(N)C[C@@]12N [SY],* (toxicities greater than >25 μg/ml are represented by *)
11,CN(C)CC(=O)Nc1ccc(C#Cc2ccc(O)c3c2C[C@@]2(N)C[C@@]4(N)[C@H](N(C)C)C(O)=C(C(N)=O)C(=O)[C@@]4(C#N)C(O)=C2C3=O)cc1 [GY],* (toxicities greater than >25 μg/ml are represented by *)
12,CN(C)[C@@H]1C(O)=C(C(N)=O)C(=O)[C@@]2(C#N)C(O)=C3C(=O)c4c(ccc(-c5cc6ccccc6o5)c4O)[C@H](N)[C@@]3(N)[C@H](O)[C@@]12N [QC],** (toxicities less than 25 μg/mL are represented by **)
13,CN(C)[C@@H]1C(O)=C(C(N)=O)C(=O)[C@@]2(C#N)C(O)=C3C(=O)c4c(O)c(C(C)(C)C)cc(-c5cnc6ccccc6c5)c4C[C@@]3(N)C[C@@]12N [OV],* (toxicities greater than >25 μg/ml are represented by *)
14,CN(C)[C@@H]1C(O)=C(C(N)=O)C(=O)[C@@]2(C#N)C(O)=C3C(=O)c4c(O)ccc(-c5ccc(F)cc5)c4[C@H](N)[C@@]3(N)[C@H](O)[C@@]12N [CQ],** (toxicities less than 25 μg/mL are represented by **)
15,CC(=O)Oc1cccc(-c2cc(N(C)C)c3c(c2O)C(=O)C2=C(O)[C@]4(C#N)C(=O)C(C(N)=O)=C(O)[C@@H](N(C)C)[C@]4(N)C[C@]2(N)C3)c1 [GP],* (toxicities greater than >25 μg/ml are represented by *)
16,C=CC(O)O[C@H]1[C@@]2(N)C(=C(O)[C@]3(C#N)C(=O)C(C(N)=O)=C(O)[C@@H](N(C)C)[C@]13N)C(=O)c1c(O)cccc1[C@@H]2N (stereo partly drawn) [BO],** (toxicities less than 25 μg/mL are represented by **)
17,CN(C)[C@@H]1C(O)=C(C(=O)CC(C)(C)C)C(=O)[C@@]2(C#N)C(O)=C3C(=O)c4c(O)c(C(C)(C)C)cc(-c5cccc([N+](=O)O)c5)c4C[C@@]3(N)C[C@@]12N [KT],** (toxicities less than 25 μg/mL are represented by **)
18,CN(C)[C@@H]1C(O)=C(C(N)=O)C(=O)[C@@]2(C#N)C(O)=C3C(=O)c4c(O)c(CN)cc(-c5ccc(I)cc5)c4C[C@@]3(N)C[C@@]12N [JT],* (toxicities greater than >25 μg/ml are represented by *)
19,CN(C)[C@@H]1C(O)=C(C(N)=O)C(=O)[C@@]2(C#N)C(O)=C3C(=O)c4c(O)ccc(-c5ccc(C(C)(C)C)cc5)c4C[C@@]3(N)C[C@@]12N [QH],** (toxicities less than 25 μg/mL are represented by **)
20,CN(C)[C@@H]1C(O)=C(C(N)=O)C(=O)[C@@]2(C#N)C(O)=C3C(=O)c4c(ccc(NC5CCCC5)c4O)[C@H](N)[C@@]3(N)[C@H]([S+](N)[O-])[C@@]12N (stereo partly drawn) [CA],** (toxicities less than 25 μg/mL are represented by **)

row,SMILES,In Vitro Cytotoxicity
1,CN(C)c1cc(-c2cccc(C(N)=O)c2)c(O)c2c1C[C@@]1(N)C[C@@]3(N)[C@H](N(C)C)C(O)=C(C(N)=O)C(=O)[C@@]3(C#N)C(O)=C1C2=O [EU],** (toxicities less than 25 μg/mL are represented by **)
2,CN(C)[C@@H]1C(O)=C(C(N)=O)C(=O)[C@@]2(C#N)C(O)=C3C(=O)c4c(O)ccc(-c5ccc(CNCc6cccc(F)c6)cc5)c4C[C@@]3(N)C[C@@]12N [OG],** (toxicities less than 25 μg/mL are represented by **)
3,"COC(=O)c1cc(N(C)C)c2c(c1O)C(=O)C1=C(O)[C@]3(C#N)C(=O)C(C(N)=O)=C(O)[C@@H](N(C)C)[C@]3(N)C[C@]1(N)C2 [Compound TC, 9-Minocycline methyl ester]",* (toxicities greater than >25 μg/ml are represented by *)
4,CN(C)c1cc(CNCc2cccn2C)c(O)c2c1C[C@@]1(N)C[C@@]3(N)[C@H](N(C)C)C(O)=C(C(N)=O)C(=O)[C@@]3(C#N)C(O)=C1C2=O [SK],* (toxicities greater than >25 μg/ml are represented by *)
5,Cc1cc(C)cc(-c2cc(N(C)C)c3c(c2O)C(=O)C2=C(O)[C@]4(C#N)C(=O)C(C(N)=O)=C(O)[C@@H](N(C)C)[C@]4(N)C[C@]2(N)C3)c1 [HD],** (toxicities less than 25 μg/mL are represented by **)
6,CCCCCc1ccc(O)c2c1C[C@@]1(N)C[C@@]3(N)[C@H](N(C)C)C(O)=C(C(N)=O)C(=O)[C@@]3(C#N)C(O)=C1C2=O [JU],** (toxicities less than 25 μg/mL are represented by **)
7,CN(C)c1cc(CNc2ccccc2)c(O)c2c1C[C@@]1(N)C[C@@]3(N)[C@H](N(C)C)C(O)=C(C(N)=O)C(=O)[C@@]3(C#N)C(O)=C1C2=O [VD],** (toxicities less than 25 μg/mL are represented by **)
8,CCc1cc(CN)c(O)c2c1C[C@@]1(N)C[C@@]3(N)[C@H](N(C)C)C(O)=C(C(N)=O)C(=O)[C@@]3(C#N)C(O)=C1C2=O [IZ],* (toxicities greater than >25 μg/ml are represented by *)
9,CCCC#Cc1cc(N(C)C)c2c(c1O)C(=O)C1=C(O)[C@]3(C#N)C(=O)C(C(N)=O)=C(O)[C@@H](N(C)C)[C@]3(N)C[C@]1(N)C2 [KX],** (toxicities less than 25 μg/mL are represented by **)
10,CN(C)[C@@H]1C(O)=C(C(N)=O)C(=O)[C@@]2(C#N)C(O)=C3C(=O)c4c(ccc(N5CCCCC5)c4O)C[C@@]3(N)C[C@@]12N [SO],** (toxicities less than 25 μg/mL are represented by **)
11,CN(C)[C@@H]1C(O)=C(C(N)=O)C(=O)[C@@]2(C#N)C(O)=C3C(=O)c4c(O)cccc4/C(=C\c4ccc5ccccc5c4)[C@@]3(N)[C@H](O)[C@@]12N [DQ],** (toxicities less than 25 μg/mL are represented by **)
12,CCc1cc(F)c(O)c2c1C[C@@]1(N)C[C@@]3(N)[C@H](N(C)C)C(O)=C(C(N)=O)C(=O)[C@@]3(C#N)C(O)=C1C2=O [IR],** (toxicities less than 25 μg/mL are represented by **)
13,CNNC(=O)c1cccc(-c2ccc(O)c3c2C[C@@]2(N)C[C@@]4(N)C(N(C)C)C(O)=C(C(N)=O)C(=O)[C@@]4(C#N)C(O)=C2C3=O)c1 (stereo partly drawn) [QY],* (toxicities greater than >25 μg/ml are represented by *)
14,CN(C)[C@@H]1C(O)=C(C(N)=O)C(=O)[C@@]2(C#N)C(O)=C3C(=O)c4c(O)ccc(-c5cc6ccccc6o5)c4C[C@@]3(N)C[C@@]12N [FW],** (toxicities less than 25 μg/mL are represented by **)
15,CC(=O)c1ccc(NC(=O)NCc2cc(N(C)C)c3c(c2O)C(=O)C2=C(O)[C@]4(C#N)C(=O)C(C(N)=O)=C(O)[C@@H](N(C)C)[C@]4(N)C[C@]2(N)C3)cc1 [NA],* (toxicities greater than >25 μg/ml are represented by *)
16,CN(C)[C@@H]1C(O)=C(C(N)=O)C(=O)[C@@]2(C#N)C(O)=C3C(=O)c4c(O)cccc4/C(=C\c4cc(F)cc(F)c4)[C@@]3(N)[C@H](O)[C@@]12N [DR],* (toxicities greater than >25 μg/ml are represented by *)
17,CN(C)[C@@H]1C(O)=C(C(N)=O)C(=O)[C@@]2(C#N)C(O)=C3C(=O)c4c(O)c(CNC(=O)C5CC5)cc(-c5ccc(C(C)(C)C)cc5)c4C[C@@]3(N)C[C@@]12N [RM],** (toxicities less than 25 μg/mL are represented by **)
18,COc1ccc(-c2cc(N(C)C)c3c(c2O)C(=O)C2=C(O)[C@]4(C#N)C(=O)C(C(N)=O)=C(O)[C@@H](N(C)C)[C@]4(N)C[C@]2(N)C3)cc1 [EA],** (toxicities less than 25 μg/mL are represented by **)
19,CN(C)c1ccc(NC(=O)NCc2cc(N(C)C)c3c(c2O)C(=O)C2=C(O)[C@]4(C#N)C(=O)C(C(N)=O)=C(O)[C@@H](N(C)C)[C@]4(N)C[C@]2(N)C3)cc1 [ND],* (toxicities greater than >25 μg/ml are represented by *)
